The values below come from EP1976842B1 (priority 2006, dated 2007).

The structures appear in SMILES notation. Read-outs that look alike come from different tables or passages of the source.

The target of this assay is T1, alpha7 nAChR (Rattus norvegicus, UniProt Q05941).
T1 construct: expressed in transfected cells
The assay is described as follows: cell-based.

T1 sequence (Q05941 23-502): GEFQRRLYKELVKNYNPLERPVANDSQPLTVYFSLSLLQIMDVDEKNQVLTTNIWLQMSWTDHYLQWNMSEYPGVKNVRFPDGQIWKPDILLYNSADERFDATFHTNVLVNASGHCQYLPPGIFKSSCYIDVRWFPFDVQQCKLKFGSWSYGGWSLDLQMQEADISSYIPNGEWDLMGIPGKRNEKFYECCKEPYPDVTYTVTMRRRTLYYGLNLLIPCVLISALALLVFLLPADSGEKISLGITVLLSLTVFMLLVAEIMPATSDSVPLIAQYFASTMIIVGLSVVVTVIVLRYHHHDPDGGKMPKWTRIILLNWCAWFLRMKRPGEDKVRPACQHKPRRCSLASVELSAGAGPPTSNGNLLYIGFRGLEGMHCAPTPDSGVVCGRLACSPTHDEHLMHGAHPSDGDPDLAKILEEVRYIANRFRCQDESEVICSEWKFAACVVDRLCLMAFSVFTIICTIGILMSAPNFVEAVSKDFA
Source text: Rat GH4C1 cells were then transfected with the rat receptor, cloned and analyzed for functional alpha7 nicotinic receptor expression employing a FLIPR assay to measure changes in intracellular calcium concentrations.
The FLIPR system allows the measurements of real time Ca^2+-concentration changes in living cells using a Ca^2+ sensitive fluorescence dye (such as Fluo4). This instrument enables the screening for agonists and antagonists for alpha 7 nAChR channels stably expressed in GH4Cl cells.
GH4Cl cells stably transfected with rat- alpha7-nAChR (see above) were used. These cells are poorly adherent and therefore pretreatment of flasks and plates with poly-D-lysine was carried out. Cells are grown in 150 cm^2 T-flasks, filled with 30 ml of medium at 37°C and 5% CO2.
EC50 and IC50 values were calculated using the IDBS XLfit4.1 software package employing a sigmoidal concentration-response (variable slope) equation: Y = Bottom + ((Top-Bottom)/(1+(((EC50/X))^(∧)⁢HillSlope)). [formula]
The compounds were tested using the functional FLIPR primary screening assay employing the stable recombinant GH4C1 cell line expressing the alpha7 nAChR. Hits identified were validated further by generation of concentration-response curves.

One may read the EC50 as the concentration giving half of the maximal effect. Consider `C[N+](C)(C)CCO` [Choline, choline], for which the response was half-maximal at 24200 ± 8300 nM (EC50).
Compound `O=c1cccc2n1C[C@@H]1CNC[C@H]2C1` [Cytisine, cytisine] registered a 50% effective concentration (EC50) of 1210 ± 130 nM.
As for `C[N+]1(C)CCN(c2ccccc2)CC1` [DMPP], the EC50 (agonist concentration-response, 0.001 to 30 microM, alpha7 nAChR stably expressed in GH4C1 cells, read-out: EC50) came out at 980 ± 470 nM.
